Laboratory results: patent publication US8802638B1, “Flavonoid treatment of glycogen synthase kinase-based disease” (University of South Florida, priority 2007, dated 2014)

Assays:
GSK-3α/β [1] = experiment: GSK-3 activation in brain homogenates of luteolin-treated Tg2576 mice; type: in vivo; details: 20 mg/kg i.p. daily for 30 days
Method: Sixteen (8♂/8♀) Tg2576 mice (Taconic, Germantown, N.Y.) were used; 8 mice received luteolin, and the other 8 received phosphate buffered saline (PBS). Beginning at 8 months of age, Tg2576 mice were intraperitoneally injected with luteolin (20 mg/kg) or PBS daily for 30 days based on previously described methods. These mice were then sacrificed at 9 months of age for analyses of Aβ levels and Aβ load in the brain according to previously described methods. Animals were housed and maintained in the College of Medicine Animal Facility at the University of South Florida (USF), and all experiments were in compliance with protocols approved by the USF Institutional Animal Care and Use Committee.
(§1) Cultured cells or mouse brain were lysed in ice-cold lysis buffer described above, and an aliquot corresponding to 50 μg of total protein was electrophoretically separated using 12% Tris-HCl or 16.5% Tris-tricine gels. […] Densitometric analysis was done as previously described using a FluorS Multiimager with Quantity One™ software (39). […] Antibodies used for Western blot included the APP-carboxyl-terminal antibody (1:50)), amino-terminal APP antibody (clone 22C11), or 6E10 (1:1,000), or actin antibody (1:1,500; as an internal reference control). γ-secretase activity was quantified in cell lysates using available kits based on secretase-specific peptides conjugated to fluorogenic reporter molecules. […]

GSK-3α/β [2] = biological target: T1, GSK-3α/β (Mus musculus, UniProt Q2NL51); experiment: Western blot of phosphorylated GSK-3α/β forms in Tg2576-derived neuronal cells; type: cell-based, mice; set-up: endogenous in cells; host or cells: primary neuronal cells derived from Tg2576 mice; details: 20 μM
Method: as §1, with “gels. Electrophoresed proteins were then transferred to PVDF membranes, washed in dH2O, and blocked for 1 hr at ambient temperature in Tris-buffered saline (TBS; Bio-Rad) containing 5% (w/v) non-fat dry milk. After blocking, membranes were hybridized for 1 hr at ambient temperature with various primary antibodies. Membranes were then washed 3× for 5 min each in dH2O and incubated for 1 hr at ambient temperature with the appropriate HRP-conjugated secondary antibody (1:1,000).” for “gels.”

TACE, ADAM10, sAPPα = experiment: non-amyloidogenic APP processing (TACE, ADAM10 maturation, sAPPα release); type: cell-based; details: data not shown
From the text: The presence of phosphorylated PS1 CTFs corresponds with reduction of Aβ generation and accumulation of the β-CTF of APP, as was observed following luteolin treatment. The accumulation β-CTFs following luteolin treatment is a fraction of β-CTF seen after direct γ-secretase inhibitor treatment (data not shown). In view of this finding, selective GSK-3 inactivation is a less toxic, more regulative, substrate-specific mode of γ-secretase inhibition. Earlier studies routinely employed phorbol-12,13-dibutyrate (PDBu), a potent PKC activator, as their phosphorylating agent. Thus, luteolin was tested for similar PKC activation, rather than a GSK-3 inhibitor. […] Additionally, there are no indications GSK-3α inhibition affects non-amyloidogenic processing of APP, since luteolin, SB-415286, and GSK-3α RNAi treatment have no effect on the maturation of TACE, ADAM10, or sAPPα release (data not shown), which are all strongly associated with PKC activation.

GSK-3α/β [3] = biological target: T1, GSK-3α/β; experiment: Western blot of phosphorylated GSK-3α/β forms in SweAPP N2a cells; type: cell-based, murine; set-up: endogenous in cells; host or cells: SweAPP N2a cells; details: 20 μM
Method: as §1, with “gels. Electrophoresed proteins were then transferred to PVDF membranes, washed in dH2O, and blocked for 1 hr at ambient temperature in Tris-buffered saline (TBS; Bio-Rad) containing 5% (w/v) non-fat dry milk. After blocking, membranes were hybridized for 1 hr at ambient temperature with various primary antibodies. Membranes were then washed 3× for 5 min each in dH2O and incubated for 1 hr at ambient temperature with the appropriate HRP-conjugated secondary antibody (1:1,000).” for “gels.”

T1 sequence (Q2NL51 2-490): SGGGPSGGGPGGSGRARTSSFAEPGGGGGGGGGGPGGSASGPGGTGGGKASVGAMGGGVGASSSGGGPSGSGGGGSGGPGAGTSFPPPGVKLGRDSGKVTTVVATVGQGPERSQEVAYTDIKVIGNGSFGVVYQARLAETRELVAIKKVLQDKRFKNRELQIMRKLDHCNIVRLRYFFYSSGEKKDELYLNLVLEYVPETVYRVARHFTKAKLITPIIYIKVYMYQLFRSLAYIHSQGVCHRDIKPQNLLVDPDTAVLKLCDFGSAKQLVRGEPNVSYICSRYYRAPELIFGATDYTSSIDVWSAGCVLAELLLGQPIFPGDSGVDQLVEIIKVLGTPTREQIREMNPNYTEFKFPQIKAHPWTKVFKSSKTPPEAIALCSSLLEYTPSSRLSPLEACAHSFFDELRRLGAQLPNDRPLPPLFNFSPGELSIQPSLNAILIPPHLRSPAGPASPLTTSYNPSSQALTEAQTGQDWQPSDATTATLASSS

O=c1cc(-c2ccc(O)c(O)c2)oc2cc(O)cc(O)c12 [luteolin]
GSK-3α/β active isoforms (ratio of phosphorylated to holo GSK-3) (GSK-3α/β [1]): reduced when compared to control
levels of serine 21-phosphorylated, inactive GSK-3α isoforms (GSK-3α/β [2]): increased the levels
maturation of TACE, ADAM10, or sAPPα release (TACE, ADAM10, sAPPα): no effect
levels of serine 21-phosphorylated, inactive GSK-3α isoforms (GSK-3α/β [3]; SweAPP N2a cells): increased the levels
levels of tyrosine 279 phosphorylated active GSK-3α isoforms (GSK-3α/β [3]; through 3 hrs (FIGS. 13 and 17)): concurrently decreased in time-dependent manner
